Data as given in a melting point compilation (Tetko et al.; mined from patent text by program, amines drawn as free bases though some values may be those of a salt).

Compound | melting point [°C]
O=S1(=O)NC(C2CCCCC2)=Nc2cccc(CO)c21 | 220 to 223
CCCc1nn(C)c2c(=O)[nH]c(-c3sccc3OCC)nc12 | 151 to 152
CCOC(=O)/C=C/C=C(c1ccc(Cl)cc1)c1ccc(Cl)cc1 | 98 to 100
CCOC(=O)C1=C(C)N(Cc2ccccc2[N+](=O)[O-])C2=C(C(=O)OC2)C1c1ccccc1C(F)(F)F (stereo not drawn) | 233
CCOC(=O)C(Cl)=Cc1cc(NC(=O)C2=C(C(=O)N(C)C)CCCC2)ccc1Cl | 161 to 164
COc1cc2c(c3c1c(=O)c1cc4ccccc4cc1n3C)[C@H](OC(=O)N(C)C)[C@H](OC(=O)N(C)C)C(C)(C)O2 | 173
Cc1cc(-c2cc(C(F)(F)F)nc(-c3cccc(-c4cccc(S(N)(=O)=O)c4)c3)n2)ccc1C(F)(F)F | 205
COc1cccc(C=CC(=O)Cl)c1 | 43 to 45
Cc1c(OCCCCSCc2ccncc2)ccnc1CNc1cnc2ccccc2c1 | 128 to 129
CS(=O)(=O)c1ccc(C(O)c2cccc3ccccc23)cc1 (stereo not drawn) | 160
c1cc(C2NCCc3sccc32)ccn1 (stereo not drawn) | 81.8 to 83.8
CC(=O)N1OCC(=O)N(CO)C1c1ccccc1 (stereo not drawn) | 123 to 126
COC(=O)c1cc(C#Cc2ccc(C(=O)OC(C)(C)C)cc2)cnc1Cl | 123 to 124
COc1cc2ncnc(Nc3cccc(N=[N+]=[N-])c3)c2cc1OC | 110 to 113
Cc1ccnc(F)c1N | 63 to 64
CCOC(=O)c1[nH]c(C)c(C)c1OCCCl | 81 to 83
COc1ccc(-c2nc(N3CCN(C)CC3)c3c(C)c(C#N)sc3n2)cc1 | > 250
O=C(O)CCCc1ccc(CCN(CC=Cc2ccc(Cl)cc2)S(=O)(=O)c2ccc(Cl)cc2)cc1 | 112 to 113
Cc1nc(C(=O)NN)c2n1-c1ccc(Cl)cc1C(c1ccccc1F)=NC2 | 235 to 237

Compound | melting point [°C]
COCCOC1c2ccn3c(C)c(C)nc3c2NC(c2ccccc2)C1OC(=O)CCCCO[N+](=O)[O-] (stereo not drawn) | 87.1
COc1ccc(C2CC(=O)OC(=O)C2)cc1 | 144 to 149
COc1cc2c(cc1F)C1(CO2)C(=O)N(Cc2ccccc2)c2ccccc21 (stereo not drawn) | 160 to 162
CC(C)Oc1ccc(SCCSc2ccc(OC(C)C)cc2)cc1 | 115 to 116
COC(=O)c1ccc(C=C(Br)Br)c(N)c1 | 97 to 99
CN1CCN(C2=Nc3ccccc3N3CCc4cccc2c43)CC1 | 149 to 151
CN1CCN(C2=Nc3cc(Cl)ccc3Oc3cscc32)CC1 | 180 to 182
CCCCCc1ncc(C(=O)O)s1 | 90
O=C(c1cccs1)c1cnn2c(-c3cccc(-c4nnn(CCO)n4)c3)ccnc12 | 134
COc1cc2c(cc1OC)C(C=Cc1ccc(N)cc1)=NNC(C)C2 (stereo not drawn) | 152 to 154
NC(=O)N(c1ccccc1-c1nc(C2CC2)no1)C1CN2CCC1CC2 (stereo not drawn) | 229 to 233
COc1cccc(OC)c1-c1ccc(CC(NC(=O)Nc2ccccc2S(=O)(=O)c2ccccc2)C(=O)O)cc1 (stereo not drawn) | 119
Cc1nc(NC(=O)c2cnn3c(C(F)(F)F)cc(-c4ccc(C(F)(F)F)cc4)nc23)sc1S(=O)(=O)NCCO | 166
COC(=O)c1ccccc1S(=O)(=O)c1ccc(/C=C/c2ccc(F)cc2)cc1 | 125
Cc1ccc(C(=O)Nc2nccc(-c3c(-c4cccc(C)c4)nc4cccnn34)n2)cc1 | 211 to 212
CCOC(=O)CN(C#N)Cc1cc(-n2cc(C)nc2C)cc(C)c1N | 135 to 140
Fc1cc(F)c(-c2c(Cl)nc(Cl)n2-c2ccc(Cl)cc2)c(F)c1 | 112 to 119
O=C(c1cc(C(F)(F)F)cc(C(F)(F)F)c1)N1CCN(C(=O)CNC2CCN(Cc3ccccc3)CC2)C(c2ccccc2)C1 (racemic) | 65 to 67
CCCCCCCCCCCCCCCCCCOc1cc(OCCCOc2ccc(S(C)(=O)=O)cc2)cc(N(CC(=O)O)CC(=O)O)c1 | 118 to 120
